Measurements taken from patent US11970473B2, “Nootkatone derivatives and methods of using the same” (Arkansas State University—Jonesboro, priority 2021, dated 2024).
Values after ≈ are worked out from the molar mass of the structure shown. Like-named read-outs stand apart in the source and are kept apart here.

Experiments:
Assay in all cases: Minimal inhibitory concentration (MIC) assay
Type in all cases: cell-based
[1] = tested on: Enterococcus faecium ATCC 700221 (Em21); details: Enterococcus faecium
Method: (§1) Minimal inhibitory concentration (MIC) assay The standard microdilution method recommended by the Clinical and Laboratory Standards Institute (CLSI) was used to determine the MIC of the antibiotics. The starting concentration of compounds was 50 μg/ml and 2-fold dilution was done down the 96 honeycomb well plate column. The MIC assay was conducted in triplicates.

[2] = tested on: S. aureus ATCC 33591 (Sa91); details: Staphylococcus aureus
Method: as §1

[3] = tested on: S. aureus ATCC 700699 (Sa99); details: Staphylococcus aureus
Method: as §1

[4] = tested on: S. epidermidis 700296 (Se); details: Staphylococcus epidermidis, read-out: Antimicrobial activity (MIC) Se
Method: as §1

[5] = tested on: S. aureus ATCC 25923 (Sa23); details: Staphylococcus aureus
Method: as §1

[6] = tested on: S. aureus BAA-2312 (Sa12); details: Staphylococcus aureus
Method: as §1

[7] = tested on: S. aureus ATCC 33592 (Sa92); details: Staphylococcus aureus
Method: as §1

[8] = tested on: Enterococcus faecalis ATCC 29212 (Es12)
Method: as §1

[9] = tested on: B. subtilis ATCC 6623 (Bs); details: Bacillus subtilis
Method: as §1

[10] = ATCC700221, Enterococcus faecium ATCC 700221, read-out: Antimicrobial activity (MIC) Em21
[11] = ATCC33591, S. aureus ATCC 33591, antibiotic-resistant strain, read-out: Antimicrobial activity (MIC) Sa91
[12] = ATCC700699, S. aureus ATCC 700699, antibiotic-resistant strain, read-out: Antimicrobial activity (MIC) Sa99
[13] = ATCC25923, S. aureus ATCC 25923, antibiotic susceptible strain, read-out: Antimicrobial activity (MIC) Sa23
[14] = BAA2312, S. aureus BAA-2312, antibiotic-resistant strain, read-out: Antimicrobial activity (MIC) Sa12
[15] = ATCC33592, S. aureus ATCC 33592, antibiotic-resistant strain, read-out: Antimicrobial activity (MIC) Sa92
[16] = ATCC29212, Enterococcus faecalis ATCC 29212, read-out: Antimicrobial activity (MIC) Es12
[17] = ATCC6623, B. subtilis ATCC 6623, read-out: Antimicrobial activity (MIC) Bs

Row | Structure (SMILES) | MIC [1, 10] | MIC [2, 11] | MIC [3, 12] | MIC ([4]; S. epidermidis 700296) | MIC [5, 13] | MIC [6, 14] | MIC [7, 15] | MIC [8, 16] | MIC [9, 17] | MIC ([1]; ATCC700221, read-out: Antimicrobial activity (MIC) Em21) | MIC ([2]; ATCC33591, read-out: Antimicrobial activity (MIC) Sa91) | MIC ([3]; ATCC700699, read-out: Antimicrobial activity (MIC) Sa99) | MIC [4] | MIC ([5]; ATCC25923, read-out: Antimicrobial activity (MIC) Sa23) | MIC ([6]; BAA2312, read-out: Antimicrobial activity (MIC) Sa12) | MIC ([7]; ATCC33592, read-out: Antimicrobial activity (MIC) Sa92) | MIC ([8]; Enterococcus faecalis, ATCC29212, read-out: Antimicrobial activity (MIC) Es12) | MIC ([9]; ATCC6623, read-out: Antimicrobial activity (MIC) Bs)
1 | C=C(C)[C@@H]1CC=C2c3sc(Cc4ccccc4)nc3C[C@@H](C)[C@]2(C)C1 [Compound 3, (5R,5aS,7R)-2-benzyl-7-isopropenyl-5,5a-dimethyl-5,6,7,8-tetrahydro-4H-benzo[g][1,3]benzothiazole] | > 100 µg/mL | > 100 µg/mL | > 100 µg/mL | > 100 µg/mL | > 100 µg/mL | > 100 µg/mL | > 100 µg/mL | > 100 µg/mL | > 100 µg/mL | – | – | – | – | – | – | – | – | –
2 | C=C(C)[C@@H]1CC=C2c3sc(Cc4ccccc4C)nc3C[C@@H](C)[C@]2(C)C1 [Compound 4, (5R,5aS,7R)-7-isopropenyl-5,5a-dimethyl-2-(o-tolylmethyl)-5,6,7,8-tetrahydro-4H-benzo[g][1,3]benzothiazole] | – | – | – | – | – | – | – | – | – | > 100 µg/mL | > 100 µg/mL | > 100 µg/mL | > 100 µg/mL | > 100 µg/mL | > 100 µg/mL | > 100 µg/mL | > 100 µg/mL | > 100 µg/mL
3 | C=C(C)[C@@H]1CC=C2c3sc(C4CCOCC4)nc3C[C@@H](C)[C@]2(C)C1 [Compound 5, (5R,5aS,7R)-7-isopropenyl-5,5a-dimethyl-2-tetrahydropyran-4-yl-5,6,7,8-tetrahydro-4H-benzo[g][1,3]benzothiazole] | > 100 µg/mL | > 100 µg/mL | > 100 µg/mL | > 100 µg/mL | 100 µg/mL (≈ 291 µM) | 100 µg/mL (≈ 291 µM) | 100 µg/mL (≈ 291 µM) | > 100 µg/mL | 50 µg/mL (≈ 146 µM) | – | – | – | – | – | – | – | – | –
4 | C=C(C)[C@@H]1CC=C2c3sc(-c4ccccc4)nc3C[C@@H](C)[C@]2(C)C1 [Compound 7, (5R,5aS,7R)-7-isopropenyl-5,5a-dimethyl-2-phenyl-5,6,7,8-tetrahydro-4H-benzo[g][1,3]benzothiazole] | > 100 µg/mL | > 100 µg/mL | > 100 µg/mL | > 100 µg/mL | – | > 100 µg/mL | > 100 µg/mL | > 100 µg/mL | > 100 µg/mL | – | – | – | – | – | – | – | – | –
5 | C=C(C)[C@@H]1CC=C2c3sc(-c4ccc(C(C)(C)C)cc4)nc3C[C@@H](C)[C@]2(C)C1 [Compound 9, (5R,5aS,7R)-2-(4-tert-butylphenyl)-7-isopropenyl-5,5a-dimethyl-5,6,7,8-tetrahydro-4H-benzo[g][1,3]benzothiazole] | > 100 µg/mL | > 100 µg/mL | > 100 µg/mL | > 100 µg/mL | – | > 100 µg/mL | > 100 µg/mL | > 100 µg/mL | > 100 µg/mL | – | – | – | – | – | – | – | – | –
6 | C=C(C)[C@@H]1CC=C2c3sc(-c4ccc(OC)cc4)nc3C[C@@H](C)[C@]2(C)C1 [Compound 10, (5R,5aS,7R)-7-isopropenyl-2-(4-methoxyphenyl)-5,5a-dimethyl-5,6,7,8-tetrahydro-4H-benzo[g][1,3]benzothiazole] | > 100 µg/mL | 100 µg/mL (≈ 274 µM) | > 100 µg/mL | > 100 µg/mL | 50 µg/mL (≈ 137 µM) | 100 µg/mL (≈ 274 µM) | > 100 µg/mL | > 100 µg/mL | 50 µg/mL (≈ 137 µM) | – | – | – | – | – | – | – | – | –
7 | C=C(C)[C@@H]1CC=C2c3sc(-c4cccc(OCC)c4)nc3C[C@@H](C)[C@]2(C)C1 [Compound 11, (5R,5aS,7R)-2-(3-ethoxyphenyl)-7-isopropenyl-5,5a-dimethyl-5,6,7,8-tetrahydro-4H-benzo[g][1,3]benzothiazole] | > 100 µg/mL | > 100 µg/mL | > 100 µg/mL | > 100 µg/mL | 50 µg/mL (≈ 132 µM) | > 100 µg/mL | > 100 µg/mL | > 100 µg/mL | > 100 µg/mL | – | – | – | – | – | – | – | – | –
8 | C=C(C)[C@@H]1CC=C2c3sc(-c4ccc(Oc5ccc(C(F)(F)F)cn5)cc4)nc3C[C@@H](C)[C@]2(C)C1 [Compound 12, (5R,5aS,7R)-7-isopropenyl-5,5a-dimethyl-2-[4-[[5-(trifluoromethyl)-2-pyridyl]oxy]phenyl]-5,6,7,8-tetrahydro-4H-benzo[g][1,3]benzothiazole] | > 100 µg/mL | > 100 µg/mL | > 100 µg/mL | > 100 µg/mL | – | > 100 µg/mL | > 100 µg/mL | > 100 µg/mL | > 100 µg/mL | – | – | – | – | – | – | – | – | –
9 | C=C(C)[C@@H]1CC=C2c3sc(-c4ccccc4O)nc3C[C@@H](C)[C@]2(C)C1 [Compound 13, 2-[(5R,5aS,7R)-7-isopropenyl-5,5a-dimethyl-5,6,7,8-tetrahydro-4H-benzo[g][1,3]benzothiazol-2-yl]phenol] | > 100 µg/mL | 100 µg/mL (≈ 284 µM) | > 100 µg/mL | > 100 µg/mL | 50 µg/mL (≈ 142 µM) | 100 µg/mL (≈ 284 µM) | > 100 µg/mL | > 100 µg/mL | 50 µg/mL (≈ 142 µM) | – | – | – | – | – | – | – | – | –
10 | C=C(C)[C@@H]1CC=C2c3sc(-c4cccc(O)c4)nc3C[C@@H](C)[C@]2(C)C1 [Compound 14, 3-[(5R,5aS,7R)-7-isopropenyl-5,5a-dimethyl-5,6,7,8-tetrahydro-4H-benzo[g][1,3]benzothiazol-2-yl]phenol] | > 100 µg/mL | > 100 µg/mL | > 100 µg/mL | > 100 µg/mL | 50 µg/mL (≈ 142 µM) | > 100 µg/mL | > 100 µg/mL | > 100 µg/mL | > 100 µg/mL | – | – | – | – | – | – | – | – | –
11 | C=C(C)[C@@H]1CC=C2c3sc(-c4ccc(F)cc4)nc3C[C@@H](C)[C@]2(C)C1 [Compound 18, (5R,5aS,7R)-2-(4-fluorophenyl)-7-isopropenyl-5,5a-dimethyl-5,6,7,8-tetrahydro-4H-benzo[g][1,3]benzothiazole] | > 100 µg/mL | 50 µg/mL (≈ 141 µM) | > 100 µg/mL | > 100 µg/mL | > 100 µg/mL | 25 µg/mL (≈ 70.7 µM) | > 100 µg/mL | > 100 µg/mL | > 100 µg/mL | – | – | – | – | – | – | – | – | –
12 | C=C(C)[C@@H]1CC=C2c3sc(-c4ccc(C(F)(F)F)cc4)nc3C[C@@H](C)[C@]2(C)C1 [Compound 22, (5R,5aS,7R)-7-isopropenyl-5,5a-dimethyl-2-[4-(trifluoromethyl)phenyl]-5,6,7,8-tetra-tetrahydro-4H-benzo[g][1,3]benzothiazole] | > 100 µg/mL | > 100 µg/mL | > 100 µg/mL | > 100 µg/mL | – | > 100 µg/mL | > 100 µg/mL | > 100 µg/mL | > 100 µg/mL | – | – | – | – | – | – | – | – | –
13 | C=C(C)[C@@H]1CC=C2c3sc(-c4ccc([N+](=O)[O-])cc4)nc3C[C@@H](C)[C@]2(C)C1 [Compound 23, (5R,5aS,7R)-7-isopropenyl-5,5a-dimethyl-2-(4-nitrophenyl)-5,6,7,8-tetrahydro-4H-benzo [g][1,3]benzothiazole] | > 100 µg/mL | > 100 µg/mL | > 100 µg/mL | > 100 µg/mL | – | > 100 µg/mL | > 100 µg/mL | > 100 µg/mL | > 100 µg/mL | – | – | – | – | – | – | – | – | –
14 | C=C(C)[C@@H]1CC=C2c3sc(Nc4ccccc4C(F)(F)F)nc3C[C@@H](C)[C@]2(C)C1 [Compound 27, (5R,5aS,7R)-7-isopropenyl-5,5a-dimethyl-N-[2-(trifluoromethyl)phenyl]-5,6,7,8-tetrahydro-4H-benzo[g][1,3]benzothiazol-2-amine] | > 100 µg/mL | > 100 µg/mL | > 100 µg/mL | > 100 µg/mL | – | > 100 µg/mL | > 100 µg/mL | > 100 µg/mL | > 100 µg/mL | – | – | – | – | – | – | – | – | –
15 | C=C(C)[C@@H]1CC=C2c3sc(Nc4cccc(C(F)(F)F)c4)nc3CC[C@]2(C)[C@H]1C [Compound 28, (5aR,6S,7R)-7-isopropenyl-5a,6-dimethyl-N-[3-(trifluoromethyl)phenyl]-5,6,7,8-tetrahydro-4H-benzo[g][1,3]benzothiazol-2-amine] | > 100 µg/mL | > 100 µg/mL | > 100 µg/mL | > 100 µg/mL | – | > 100 µg/mL | > 100 µg/mL | > 100 µg/mL | > 100 µg/mL | – | – | – | – | – | – | – | – | –
16 | C=C(C)[C@@H]1CC=C2c3sc(Nc4ccccc4[N+](=O)[O-])nc3C[C@@H](C)[C@]2(C)C1 [Compound 29, (5R,5aS,7R)-7-isopropenyl-5,5a-dimethyl-N-(2-nitrophenyl)-5,6,7,8-tetrahydro-4H-benzo[g][1,3]benzothiazol-2-amine] | > 100 µg/mL | > 100 µg/mL | > 100 µg/mL | > 100 µg/mL | – | > 100 µg/mL | > 100 µg/mL | > 100 µg/mL | > 100 µg/mL | – | – | – | – | – | – | – | – | –
